The source of these data is patent US10681908B2, “Molecules having pesticidal utility, and intermediates, compositions, and processes, related thereto” (Dow AgroSciences LLC, priority 2016, dated 2020).

Holding throughout (assay type): in vivo
Data set [1] relates to Beet Armyworm (Spodoptera exigua, LAPHEG). Put plainly: Bioassay on Beet Armyworm (BAW), 128-well diet tray assay. Particulars: 168 h, 50 μg/cm^2 on artificial diet, second instar larvae, five to seven days, 25° C., read-out: BAW % Control (or Mortality) rating. In short, it runs like this:
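Mortality of second-instar larvae (one to five per well) was scored after five to seven days at 25 °C under 14:10 light-dark and averaged across eight wells. Each well's diet had received 50 μg/cm^2 test molecule from a 90:10 acetone-water solution, allowed to dry before infestation.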

For data set [2], the system named is Yellow Fever Mosquito (Aedes aegypti, AEDSAE). Particulars: about 1 day-old larvae, 3 days, room temperature, scored on mortality. How it is done: Example C: Bioassays on Yellow Fever Mosqurro (Aedes aegypti, AEDSAE) (“YFM”)
Certain molecules disclosed in this document were tested against YFM using procedures described in the following paragraph. In the reporting of the results, the “GPA & YFM Rating Table” was used (See Table Section).
Master plates containing 400 μg of a molecule dissolved in 100 μL of dimethyl sulfoxide (DMSO) (equivalent to a 4000 ppm solution) are used. A master plate of assembled molecules contains 15 μL per well. To this plate, 135 μL of a 90:10 water:acetone mixture is added to each well. A robot (Biomek® NXP Laboratory Automation Workstation) is programmed to dispense 15 μL aspirations from the master plate into an empty 96-well shallow plate (“daughter” plate). There are 6 reps (“daughter” plates) created per master. The created daughter plates are then immediately infested with YFM larvae.
The day before plates are to be treated, mosquito eggs are placed in Millipore water containing liver powder to begin hatching (4 g. into 400 mL). After the daughter plates are created using the robot, they are infested with 220 μL of the liver powder/larval mosquito mixture (about 1 day-old larvae). After plates are infested with mosquito larvae, a non-evaporative lid is used to cover the plate to reduce drying. Plates are held at room temperature for 3 days prior to grading. After 3 days, each well is observed and scored based on mortality. The results are indicated in the table entitled “Table ABC: Biological Results” (See Table Section).

Data set [3] deals with Cabbage Looper (Trichoplusia ni, TRIPNI). The data set can be described thus: Bioassay on Cabbage Looper (CL), 128-well diet tray assay. To be noted: 168 h, 50 μg/cm^2 on artificial diet, second instar larvae, five to seven days, 25° C., read-out: CL % Control (or Mortality) rating. In short, it runs like this:
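Percent mortality, averaged over eight wells, scored after five to seven days at 25° C. under 14:10 light-dark. Each well held 1–5 second-instar larvae on artificial diet treated with 50 μg/cm^2 test molecule applied in 90:10 acetone-water and dried.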

Molecules are shown by their SMILES.

As a reminder, the mortality is the share of the test organisms that died. In the case of `C[C@H](C[S+]([O-])CC(F)(F)F)NC(=O)c1ccc(/C(F)=C/C(c2cc(Cl)c(Br)c(Cl)c2)C(F)(F)F)cc1C(F)(F)F` (stereo partly drawn) [F26, 4-((Z)-3-(4-Bromo-3,5-dichlorophenyl)-1,4,4,4-tetrafluorobut-1-en-1-yl)-N-((2R)-1-((2,2,2-trifluoroethyl)sulfinyl)propan-2-yl)-2-(trifluoromethyl)benzamide], the mortality at 50 µg/cm2 in data set [1] and in data set [3] was 50 to 100% each time. Also, the “YFM % Control (or Mortality) rating” value in data set [2] was “A (80-100)”.
In the case of `C[C@H](C[S+]([O-])CC(F)(F)F)NC(=O)c1ccc(/C(F)=C/C(c2cc(Cl)cc(Cl)c2)C(F)(F)F)cc1C(F)(F)F` (stereo partly drawn) [F27, 4-((Z)-3-(3,5-Dichlorophenyl)-1,4,4,4-tetrafluorobut-1-en-1-yl)-N-((2R)-1-((2,2,2-trifluoroethyl)sulfinyl)propan-2-yl)-2-(trifluoromethyl)benzamide], the mortality at 50 µg/cm2 in data set [1] and in data set [3] was 50 to 100% throughout. Further, in data set [2], the “YFM % Control (or Mortality) rating” value was “A (80-100)”.
In the case of `C[C@H](C[S+]([O-])CC(F)(F)F)NC(=O)c1ccc(/C(F)=C/C(c2ccc(Cl)c(Cl)c2)C(F)(F)F)cc1C(F)(F)F` (stereo partly drawn) [F28, 4-((Z)-3-(3,4-Dichlorophenyl)-1,4,4,4-tetrafluorobut-1-en-1-yl)-N-((2R)-1-((2,2,2-trifluoroethyl)sulfinyl)propan-2-yl)-2-(trifluoromethyl)benzamide], the mortality at 50 µg/cm2 in data set [1] and in data set [3] was 50 to 100% throughout. Also, in data set [2], the “YFM % Control (or Mortality) rating” value is recorded as “B (More than 0-Less than 80)”.
Turning to `C[C@H](CS(=O)(=O)CC(F)(F)F)NC(=O)c1ccc(/C(F)=C/C(c2cc(Cl)c(F)c(Cl)c2)C(F)(F)F)cc1C(F)(F)F` (stereo partly drawn) [F29, 4-((Z)-3-(3,5-Dichloro-4-fluorophenyl)-1,4,4,4-tetrafluorobut-1-en-1-yl)-N—((R)-1-((2,2,2-trifluoroethyl)sulfonyl)propan-2-yl)-2-(trifluoromethyl)benzamide], the mortality at 50 µg/cm2 in data set [1] and in data set [3] was 50 to 100% throughout. The “YFM % Control (or Mortality) rating” value in data set [2] is “A (80-100)”.
In the case of `C[C@H](CSCC(F)(F)F)NC(=O)c1ccc(/C(F)=C/C(c2cc(Br)cc(Br)c2)C(F)(F)F)cc1C(F)(F)F` (stereo partly drawn) [F30, 4-((Z)-3-(3,5-Dibromophenyl)-1,4,4,4-tetrafluorobut-1-en-1-yl)-N—((R)-1-((2,2,2-trifluoroethyl)thio)propan-2-yl)-2-(trifluoromethyl)benzamide], the mortality at 50 µg/cm2 in data set [1] and in data set [3] was 50 to 100% each time. Besides, the “YFM % Control (or Mortality) rating” value in data set [2] was “A (80-100)”.
Regarding `C[C@H](C[S+]([O-])CC(F)(F)F)NC(=O)c1ccc(/C(F)=C/C(c2cc(Br)cc(Br)c2)C(F)(F)F)cc1C(F)(F)F` (stereo partly drawn) [F31, 4-((Z)-3-(3,5-Dibromophenyl)-1,4,4,4-tetrafluorobut-1-en-1-yl)-N-((2R)-1-((2,2,2-trifluoroethyl)sulfinyl)propan-2-yl)-2-(trifluoromethyl)benzamide], the mortality at 50 µg/cm2 in data set [1] and in data set [3] was 50 to 100% in each case. Besides, in data set [2], the “YFM % Control (or Mortality) rating” value is listed as “B (More than 0-Less than 80)”.
Turning to `C=Cc1c(Cl)cc(C(/C=C(\F)c2ccc(C(=O)N[C@H](C)CSCC(F)(F)F)c(C(F)(F)F)c2)C(F)(F)F)cc1Cl` (stereo partly drawn) [F32, 4-((Z)-3-(3,5-Dichloro-4-vinylphenyl)-1,4,4,4-tetrafluorobut-1-en-1-yl)-N—((R)-1-((2,2,2-trifluoroethyl)thio)propan-2-yl)-2-(trifluoromethyl)benzamide], the mortality at 50 µg/cm2 in data set [1] and in data set [3] was 50 to 100% in each case. Moreover, the “YFM % Control (or Mortality) rating” value in data set [2] is reported as “A (80-100)”.
As to `C=Cc1c(Cl)cc(C(/C=C(\F)c2ccc(C(=O)N[C@H](C)CS(=O)(=O)CC(F)(F)F)c(C(F)(F)F)c2)C(F)(F)F)cc1Cl` (stereo partly drawn) [F33, 4-((Z)-3-(3,5-Dichloro-4-vinylphenyl)-1,4,4,4-tetrafluorobut-1-en-1-yl)-N—((R)-1-((2,2,2-trifluoroethyl)sulfonyl)propan-2-yl)-2-(trifluoromethyl)benzamide], the mortality at 50 µg/cm2 in data set [1] and in data set [3] was 50 to 100% each time. For the same compound, the “YFM % Control (or Mortality) rating” value in data set [2] is “A (80-100)”.
Turning to `C=Cc1c(Cl)cc(C(/C=C(\F)c2ccc(C(=O)N[C@H](C)C[S+]([O-])CC(F)(F)F)c(C(F)(F)F)c2)C(F)(F)F)cc1Cl` (stereo partly drawn) [F34, 4-((Z)-3-(3,5-Dichloro-4-vinylphenyl)-1,4,4,4-tetrafluorobut-1-en-1-yl)-N-((2R)-1-((2,2,2-trifluoroethyl)sulfinyl)propan-2-yl)-2-(trifluoromethyl)benzamide], the mortality at 50 µg/cm2 in data set [1] and in data set [3] was 50 to 100% each time. The “YFM % Control (or Mortality) rating” value in data set [2] was “A (80-100)”.
In the case of `Cc1cc(C(/C=C(\F)c2ccc(C(=O)N[C@H](C)CS(=O)(=O)CC(F)(F)F)c(C(F)(F)F)c2)C(F)(F)F)cc(C)c1Cl` (stereo partly drawn) [F35, 4-((Z)-3-(4-Chloro-3,5-dimethylphenyl)-1,4,4,4-tetrafluorobut-1-en-1-yl)-N—((R)-1-((2,2,2-trifluoroethyl)sulfonyl)propan-2-yl)-2-(trifluoromethyl)benzamide], the mortality at 50 µg/cm2 in data set [1] and in data set [3] was 50 to 100% throughout. Besides, the “YFM % Control (or Mortality) rating” value in data set [2] is reported as “A (80-100)”.
For `C[C@H](CSCC(F)(F)F)NC(=O)c1ccc(/C(F)=C/C(c2cc(Cl)c(F)c(Cl)c2)C(F)(F)F)cc1C(F)(F)F` (stereo partly drawn) [F36, 4-((Z)-3-(3,5-Dichloro-4-fluorophenyl)-1,4,4,4-tetrafluorobut-1-en-1-yl)-N—((R)-1-((2,2,2-trifluoroethyl)thio)propan-2-yl)-2-(trifluoromethyl)benzamide], the mortality at 50 µg/cm2 in data set [1] and in data set [3] was 50 to 100% throughout. The “YFM % Control (or Mortality) rating” value in data set [2] is on record as “A (80-100)”.
On to `C[C@H](C[S+]([O-])CC(F)(F)F)NC(=O)c1ccc(/C(F)=C/C(c2cc(Cl)c(F)c(Cl)c2)C(F)(F)F)cc1C(F)(F)F` (stereo partly drawn) [F37, 4-((Z)-3-(3,5-Dichloro-4-fluorophenyl)-1,4,4,4-tetrafluorobut-1-en-1-yl)-N-((2R)-1-((2,2,2-trifluoroethyl)sulfinyl)propan-2-yl)-2-(trifluoromethyl)benzamide], for which the mortality at 50 µg/cm2 in data set [1] and in data set [3] was 50 to 100% each time. The “YFM % Control (or Mortality) rating” value in data set [2] is “A (80-100)”.
As to `CC[S+]([O-])C[C@@H](C)NC(=O)c1ccc(/C(F)=C/C(c2cc(C)c(Cl)c(C)c2)C(F)(F)F)cc1C(F)(F)F` (stereo partly drawn) [F44, 4-((Z)-3-(4-Chloro-3,5-dimethylphenyl)-1,4,4,4-tetrafluorobut-1-en-1-yl)-N-((2R)-1-(ethylsulfinyl)propan-2-yl)-2-(trifluoromethyl)benzamide], the mortality at 50 µg/cm2 in data set [1] and in data set [3] was 50 to 100% throughout. In addition, the “YFM % Control (or Mortality) rating” value in data set [2] is “A (80-100)”.
Turning to `CCS(=O)(=O)C[C@@H](C)NC(=O)c1ccc(/C(F)=C/C(c2cc(Cl)cc(Cl)c2)C(F)(F)F)cc1C(F)(F)F` (stereo partly drawn) [F45, 4-((Z)-3-(3,5-Dichlorophenyl)-1,4,4,4-tetrafluorobut-1-en-1-yl)-N—((R)-1-(ethylsulfonyl)propan-2-yl)-2-(trifluoromethyl)benzamide], the mortality at 50 µg/cm2 in data set [1] and in data set [3] was 50 to 100% throughout. Moreover, the “YFM % Control (or Mortality) rating” value in data set [2] is recorded as “A (80-100)”.
